Test results from ChEMBL document CHEMBL1130322, “Anticancer and antiviral effects and inactivation of S-adenosyl-L-homocysteine hydrolase with 5'-carboxaldehydes and oximes synthesized from adenosine and sugar-modified analogues” (J Med Chem, 1997).
In brackets after ≈: the same amount, converted by molar mass.

Legend:
Vero [1] = assay: cells; conditions: Chlorocebus sabaeus
Human alphaherpesvirus 2 = assay: microbe, parasite or virus in culture
Vero [2] = assay: cells; conditions: Chlorocebus sabaeus; remark: listed apart in the source
Vero [3] = assay: cells; conditions: Chlorocebus sabaeus; remark: listed apart in the source
Vero [4] = assay: cells; conditions: Chlorocebus sabaeus; remark: listed apart in the source
E6SM = assay: Minimum inhibitory concentration required to effect a microscopically visible change of cell morphology in human embryonic skin-muscle (E6SM) cell culture.; format: functional; set-up: unit not given here
Vero [5] = assay: cells; conditions: Chlorocebus sabaeus; remark: listed apart in the source
Human alphaherpesvirus 1 [6] = assay: microbe, parasite or virus in culture
Human alphaherpesvirus 1 [7] = assay: microbe, parasite or virus in culture; remark: listed apart in the source
Human alphaherpesvirus 1 [8] = assay: microbe, parasite or virus in culture; remark: listed apart in the source
Vero [9] = assay: Minimum inhibitory concentration required to effect a microscopically visible change of cell morphology in Vero cell culture.; format: functional, Chlorocebus sabaeus; set-up: unit not given here
HEL [10] = assay: (§1) 50% Cytostatic concentration required to inhibit human erythroleukemic (HEL) cell proliferation; format: functional
FM3A = assay: cells; conditions: Mus musculus
Adenosylhomocysteinase [11] = target: T1, Adenosylhomocysteinase (Homo sapiens, UniProt P23526)
Target sequence in this assay (P23526 whole entry): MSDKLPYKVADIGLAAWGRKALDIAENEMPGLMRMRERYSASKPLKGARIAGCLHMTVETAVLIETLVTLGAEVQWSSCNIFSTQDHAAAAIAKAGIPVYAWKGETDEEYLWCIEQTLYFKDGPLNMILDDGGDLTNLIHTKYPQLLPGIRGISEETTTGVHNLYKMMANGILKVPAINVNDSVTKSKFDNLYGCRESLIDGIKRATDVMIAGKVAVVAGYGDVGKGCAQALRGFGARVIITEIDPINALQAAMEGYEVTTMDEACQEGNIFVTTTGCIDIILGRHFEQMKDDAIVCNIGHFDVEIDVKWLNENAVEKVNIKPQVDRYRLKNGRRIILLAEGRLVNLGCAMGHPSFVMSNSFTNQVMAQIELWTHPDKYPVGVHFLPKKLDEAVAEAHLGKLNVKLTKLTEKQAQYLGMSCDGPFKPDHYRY

HeLa [12] = assay: cells; conditions: Homo sapiens
L1210 = assay: cells; conditions: Mus musculus
MDCK [13] = assay: cells; conditions: Canis lupus familiaris
Human betaherpesvirus 5 [14] = assay: microbe, parasite or virus in culture
Adenosylhomocysteinase [15] = target: T1, Adenosylhomocysteinase; remark: listed apart in the source
Target sequence in this assay (P23526 2-432 limits assumed): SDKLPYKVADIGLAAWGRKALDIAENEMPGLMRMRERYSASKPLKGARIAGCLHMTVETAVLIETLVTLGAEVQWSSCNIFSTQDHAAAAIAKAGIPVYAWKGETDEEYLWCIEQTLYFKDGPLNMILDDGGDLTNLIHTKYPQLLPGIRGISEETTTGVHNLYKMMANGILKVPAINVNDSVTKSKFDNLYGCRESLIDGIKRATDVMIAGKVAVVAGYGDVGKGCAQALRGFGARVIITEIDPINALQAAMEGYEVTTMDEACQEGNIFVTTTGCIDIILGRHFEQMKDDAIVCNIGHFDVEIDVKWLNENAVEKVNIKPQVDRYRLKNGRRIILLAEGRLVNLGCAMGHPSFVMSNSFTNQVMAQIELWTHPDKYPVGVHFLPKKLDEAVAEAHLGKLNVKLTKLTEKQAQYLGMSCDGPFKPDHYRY

MOLT-4 = assay: cells; conditions: Homo sapiens
HeLa [16] = assay: cells; conditions: Homo sapiens; remark: listed apart in the source
Human betaherpesvirus 5 [17] = assay: microbe, parasite or virus in culture; remark: listed apart in the source
Vero [18] = assay: cells; conditions: Chlorocebus sabaeus; remark: listed apart in the source
[19] = system: Respiratory syncytial virus; assay: microbe, parasite or virus in culture; conditions: human respiratory syncytial virus, HeLa
MDCK [20] = assay: cells; conditions: Canis lupus familiaris; remark: listed apart in the source
CCRF-CEM = assay: cells; conditions: Homo sapiens
MDCK [21] = format: functional, Canis lupus familiaris; set-up: unit not given here
HeLa [22] = assay: Minimum inhibitory concentration required to effect a microscopically visible change of cell morphology in HeLa cell culture.; format: functional, Homo sapiens; set-up: unit not given here
HEL [23] = assay: as §1; format: functional; set-up: unit not given here
Human alphaherpesvirus 1 [24] = assay: microbe, parasite or virus in culture; remark: listed apart in the source
Human alphaherpesvirus 1 [25] = assay: microbe, parasite or virus in culture; remark: listed apart in the source

SMILES | EC50 (Vero [1]) | EC50 (Human alphaherpesvirus 2) | EC50 (Vero [2]) | EC50 (Vero [3]) | EC50 (Vero [4]) | MIC (E6SM) | EC50 (Vero [5]) | EC50 (Human alphaherpesvirus 1 [6]) | EC50 (Human alphaherpesvirus 1 [7]) | EC50 (Vaccinia virus) | EC50 (Human alphaherpesvirus 1 [8]) | IC50 (FM3A) | Ki (Adenosylhomocysteinase [11]) | IC50 (L1210) | EC50 (Human betaherpesvirus 5 [14]) | k2 (Adenosylhomocysteinase [15]) | IC50 (MOLT-4) | EC50 (Human betaherpesvirus 5 [17]) | IC50 (CCRF-CEM) | CC50 (HEL [23]) | also measured
Nc1ccnc2c1ncn2[C@@H]1O[C@H](CO)[C@@H](O)[C@H]1O | 4 µg/mL (≈ 15 µM) | > 400 µg/mL | 0.2 µg/mL (≈ 0.751 µM) | 0.7 µg/mL (≈ 2.63 µM) | > 400 µg/mL | >400 | 4 µg/mL (≈ 15 µM) | 40 µg/mL (≈ 150 µM) | > 400 µg/mL | 0.7 µg/mL (≈ 2.63 µM) | > 400 µg/mL |  |  |  |  |  |  |  |  |  | 
CCO/N=C/[C@H]1OC(n2cnc3c(N)ncnc32)[C@H](O)[C@@H]1O (stereo partly specified) | > 100 µg/mL | > 200 µg/mL | > 100 µg/mL | > 200 µg/mL | > 100 µg/mL | >200 | > 100 µg/mL | > 200 µg/mL | > 200 µg/mL | 100 µg/mL (≈ 324 µM) | > 200 µg/mL | > 500 µg/mL | 111 nM | 295 µg/mL (≈ 957 µM) | > 10 µg/mL | 0.037 min⁻¹ | > 500 µg/mL | > 4 µg/mL | > 500 µg/mL |  | MIC (Vero [9]): >200; CC50 (HEL [10]): >50; EC50 (HeLa [12]): > 200 µg/mL; EC50 (MDCK [13]): 1.2 µg/mL (≈ 3.89 µM); EC50 (HeLa [16]): > 200 µg/mL; EC50 (Vero [18]): > 100 µg/mL; EC50 [19]: > 200 µg/mL; EC50 (MDCK [20]): 0.8 µg/mL (≈ 2.59 µM); MIC (MDCK [21]): 4; MIC (HeLa [22]): >200
Nc1ncnc2c1ncn2[C@@H]1O[C@@H](C=O)[C@@H](O)[C@H]1O |  |  |  |  |  |  |  |  |  |  |  |  | 43 nM |  |  | 0.22 min⁻¹ |  |  |  |  | 
Nc1ncnc2c1ncn2C1CC(O)C(/C=N/O)O1 (stereo unspecified) | > 100 µg/mL | > 100 µg/mL | > 100 µg/mL | > 100 µg/mL | > 100 µg/mL | 200 | > 100 µg/mL | > 100 µg/mL | > 100 µg/mL | > 100 µg/mL | > 100 µg/mL | 11.2 µg/mL (≈ 42.4 µM) |  | 4.6 µg/mL (≈ 17.4 µM) | 0.6 µg/mL (≈ 2.27 µM) |  | 17 µg/mL (≈ 64.3 µM) | 1 µg/mL (≈ 3.78 µM) | 13.8 µg/mL (≈ 52.2 µM) | 14 | 
Nc1ncnc2c1ncn2[C@@H]1O[C@H](C=O)[C@@H](O)[C@H]1O | > 200 µg/mL | > 400 µg/mL | > 200 µg/mL | 300 µg/mL (≈ 1130 µM) | > 200 µg/mL | >400 | > 200 µg/mL | > 400 µg/mL | > 400 µg/mL | 70 µg/mL (≈ 264 µM) | > 400 µg/mL | 15 µg/mL (≈ 56.6 µM) |  | 9.71 µg/mL (≈ 36.6 µM) | > 40 µg/mL |  | 41.5 µg/mL (≈ 156 µM) | > 40 µg/mL | 7.3 µg/mL (≈ 27.5 µM) | >50 | 
Nc1ncnc2c1ncn2C1O[C@H](C(O)O)[C@@H](O)[C@@H]1O (stereo partly specified) | 300 µg/mL (≈ 1060 µM) | > 400 µg/mL | 150 µg/mL (≈ 530 µM) | > 400 µg/mL | > 200 µg/mL | >400 | > 200 µg/mL |  |  | 20 µg/mL (≈ 70.6 µM) | 300 µg/mL (≈ 1060 µM) | 125 µg/mL (≈ 441 µM) |  | 156 µg/mL (≈ 551 µM) | > 40 µg/mL |  | > 200 µg/mL | > 40 µg/mL | 118 µg/mL (≈ 417 µM) | >50 | EC50 (Human alphaherpesvirus 1 [24]): > 400 µg/mL; EC50 (Human alphaherpesvirus 1 [25]): > 400 µg/mL
Nc1ncnc2c1ncn2C[C@H](O)CO [(S)-DHPA] | 70 µg/mL (≈ 335 µM) | > 400 µg/mL | 70 µg/mL (≈ 335 µM) | 20 µg/mL (≈ 95.6 µM) | > 400 µg/mL | >400 | > 400 µg/mL | > 40 µg/mL | > 400 µg/mL | 20 µg/mL (≈ 95.6 µM) | > 400 µg/mL |  |  |  |  |  |  |  |  |  | 
CO/N=C/[C@H]1OC(n2cnc3c(N)ncnc32)[C@H](O)[C@@H]1O (stereo partly specified) | > 100 µg/mL | > 200 µg/mL | > 100 µg/mL | 150 µg/mL (≈ 510 µM) | > 100 µg/mL | 400 | > 100 µg/mL |  |  | 100 µg/mL (≈ 340 µM) | > 200 µg/mL | 19 µg/mL (≈ 64.6 µM) | 94.6 nM | 271 µg/mL (≈ 921 µM) | > 10 µg/mL | 0.048 min⁻¹ | 218 µg/mL (≈ 741 µM) | > 10 µg/mL | 330 µg/mL (≈ 1120 µM) | >50 | MIC (Vero [9]): >200; EC50 (HeLa [12]): > 200 µg/mL; EC50 (MDCK [13]): 4 µg/mL (≈ 13.6 µM); EC50 (HeLa [16]): > 200 µg/mL; EC50 (Human alphaherpesvirus 1 [24]): > 200 µg/mL; EC50 (Vero [18]): > 100 µg/mL; EC50 [19]: > 200 µg/mL; EC50 (MDCK [20]): 0.8 µg/mL (≈ 2.72 µM); EC50 (Human alphaherpesvirus 1 [25]): > 200 µg/mL; MIC (MDCK [21]): 20; MIC (HeLa [22]): >200
